Experimental data as given in PMC5688144, “Assay interference and off-target liabilities of reported histone acetyltransferase inhibitors” (Nature Communications, 2017).

What was measured:
PCAF = biological target: T1, PCAF (Homo sapiens, UniProt Q92831); conditions: original report; 27 (Supplementary References); cited from earlier work
T1 construct: Reaction Biology Corporation (assays run by this contract lab)

human La antigen = biological target: T2, human La antigen (Homo sapiens, UniProt P05455, T302N); assay: ALARM NMR; assay type: binding; conditions: 400 μM compound; for ALARM NMR, (-) DTT: 0 mM DTT; for ALARM NMR, (+) DTT: DTT present; for ALARM NMR interpretation: with and without DTT
T2 construct: amino acids 100–324 of the human La antigen (plus T302N mutation); 6xHis (N); 6xHis (C); host or cells: Escherichia coli Rosetta cells
T2 sequence (P05455 100-324 T302N): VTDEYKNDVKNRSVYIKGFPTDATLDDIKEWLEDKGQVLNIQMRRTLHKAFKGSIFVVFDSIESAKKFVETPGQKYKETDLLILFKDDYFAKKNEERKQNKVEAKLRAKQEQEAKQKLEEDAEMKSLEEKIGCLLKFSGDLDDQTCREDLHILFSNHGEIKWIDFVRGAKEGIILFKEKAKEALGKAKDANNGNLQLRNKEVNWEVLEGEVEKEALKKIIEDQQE
Excerpt: The gene encoding amino acids 100–324 of the human La antigen (plus T302N mutation) was cloned into pET28b + vector (Novagen) with both an N- and C-terminal 6xHis tag (addgene.org, plasmid ID 90209). The sequence identity of the ALARM NMR plasmid construct was verified by Sanger sequencing of the transgene region and next-generation sequencing of the whole plasmid.
Plasmid was transformed into Escherichia coli Rosetta cells (Novagen) and cultured in M9 minimal media. The La antigen was labeled by adding ^13C-labeled amino acid precursors ([3-^13C]-α-ketobutyrate and [3,3′-^13C]-α-ketoisovalerate sodium salts; Cambridge Isotope Laboratories; 250 mg L^−1 final concentrations) to culture medium 30 min before induction with IPTG (1 mM final concentration). Bacteria were collected after incubation at 25 °C for 8 h and washed with ice-cold phosphate-buffered saline (PBS). Washed cells were lysed by French press in ice-cold lysis buffer (50 mM Tris, pH 7.6, 300 mM NaCl, 10% glycerol (v/v), 5 mM β-mercaptoethanol (BME), 5 mM imidazole, 2 mM MgCl2, benzonase, and protease inhibitor cocktail), followed by an additional brief sonication step (3 × 15 s pulse sequence) on ice. This lysed solution was centrifuged (30,000×g for 30 min, two cycles) to remove cellular debris, then loaded onto a pre-washed Ni-NTA bead column (Qiagen) kept at 4 °C and washed with buffer (50 mM Tris, pH 7.6, 300 mM NaCl, 10% glycerol (v/v), 5 mM BME, 5 mM imidazole). The La antigen was eluted with an elution buffer (50 mM Tris, pH 7.6, 300 mM NaCl, 10% glycerol (v/v), 5 mM BME, imidazole gradient ranging from 5 mM to 0.5 M). […] Aliquots were flash-frozen in liquid N2 and stored at −80 °C until further use. Before use, aliquots of ~150 μM protein were incubated in the presence of 20 mM DTT at 37 °C for 1 h, then dialyzed (25 mM sodium phosphate buffer, pH 7.0 (no DTT)) in 16 h cycles at 4 °C with constant nitrogen bubbling and with gentle stirring, for three total buffer cycles.
For standard testing conditions, the [^1H-^13C]-HMQC spectra were acquired in 25 mM sodium phosphate buffer, pH 7.0, 10% D2O (v/v; CIL) ± 400 μM test compounds delivered from the aforementioned stock solutions, and ± 20 mM non-deuterated DTT. Final concentration of DMSO was 4.0% (v/v). Reaction solutions were mixed, then centrifuged for 5 min (1000×g) in non-binding 384-well microplates at RT, then incubated at 37 °C for 1 h and then 30 °C for 15 h before obtaining spectra. Samples were checked for evidence of gross precipitation. Data were recorded at 298 K on a Bruker UltraShield 700 MHz NMR spectrometer equipped with a Bruker 1.7 mm TCI Cryoprobe and Bruker SampleJet autosampler. Samples were tested at 50 μM protein concentrations using 16 scans, 2048 complex points in F2, and 80 points in F1 using standard protein [^1H-^13C]-HMQC and water suppression pulse sequences.
Data were analyzed in TopSpin™ 3.5 (Bruker). Reactions were normalized to equivalent DMSO controls. Non-reactive compounds were identified by the absence of chemical shifts or changes in peak intensities (^13C-methyl) ± 20 mM DTT.

AmpC β-lactamase = biological target: T3, AmpC β-lactamase (Escherichia coli, UniProt P00811); assay: biochemical; design: species or system E. coli; conditions: 10 μM compound; ± 0.01% Triton X-100
T3 construct: Recombinant E. coli AmpC (amino acids 20–377); purchased MyBioSource.com
Description: Selected compounds were assessed for aggregation using a modified AmpC β-lactamase counter-screen[24],[32],[64]. Recombinant E. coli AmpC (amino acids 20–377) was obtained from MyBioSource.com. Testing was performed in ALARM NMR buffer (25 mM sodium phosphate, pH 7.0) in flat-bottom UV-transparent 96-well microplates in 150 μL reaction volumes. Compounds were tested in triplicate at 10 μM final concentrations in either the presence or absence of freshly-prepared 0.01% Triton X-100 (v/v). Final concentration of DMSO was 2.0% (v/v). Compounds were incubated with ~5 nM AmpC in 147 μL reaction buffer for 5 min at RT, followed by the addition of 3 μL of nitrocefin substrate (100 μM final concentration). Reaction solutions were gently mixed by pipetting up and down three times using a multichannel pipette. […] Percent activity was normalized to DMSO-only controls. Fluconazole and lidocaine were included as negative aggregation control compounds. Rottlerin was included as a positive aggregation control compound. Aggregators were defined as compounds with significant detergent-dependent changes in AmpC activity (t-test, adjusted P-value <0.05; mean differences greater than 30%). Activators were defined as compounds that increased AmpC enzymatic activity.

MOZ [1] = conditions: original report; ref 26 (Supplementary References); cited from earlier work
MOF = tested on: MOF; design: method as in ref 19, 26 (Supplementary References); conditions: original report; 26 (Supplementary References); cited from earlier work
[2] = UPLC-MS gross compound stability in assay buffer; conditions: 25 mM sodium phosphate, pH 7.0, 30 °C, no GSH or CoA
Description: Select compounds were incubated up to 24 h for additional stability analyses. Chromatograms and mass spectra were qualitatively analyzed for the formation of new peaks and/or loss of parent peaks.

MOZ [3] = biological target: MOZ; design: method as in ref 26 (Supplementary References); conditions: original report; ref 26 (Supplementary References); cited from earlier work
Absorbance spectra = assay type: physicochemical; conditions: 25 mM sodium phosphate, pH 7.0
Description: Selected test compounds were assessed for absorption between 300 and 750 nm. Most compound absorption spectra were obtained at 100, 50, and 10 μM final compound concentrations in ALARM NMR buffer (25 mM sodium phosphate, pH 7.0). Final concentration of DMSO was constant at 2.0% (v/v). Compounds were allowed to incubate at RT in buffer for 10 min in UV-transparent polystyrene 384-well plates. Absorbance spectra were then obtained on a SpectraMax M3 or BMG Labtech CLARIOstar microplate reader at 25 °C. Significant absorbance was defined as molar absorptivity constants greater than 2000 M^−1 cm^−1 at wavelengths greater than 300 nm.

p300/CBP = conditions: original report; 27 (Supplementary References); cited from earlier work
[4] = design: method as in not given; conditions: noted in discussion; ref not given; cited from earlier work

## N#Cc1c2ccc(N)cc2nc2cc(N)ccc12 [Compound 22, CTx-1]
PCAF
  IC50: > 100 µM
Human La antigen
  ALARM NMR, (-) DTT: Negative
  ALARM NMR, (+) DTT: Negative
  ALARM NMR interpretation: Inert as tested
AmpC β-lactamase
  AmpC aggregation counter-screen: Detergent-insensitive
MOZ [1]
  Ki: 2400 nM
MOF
  IC50: > 100 µM
[2]
  UPLC-MS buffer stability counter-screen: Grossly stable
MOZ [3]
  Kd: 380 nM
Absorbance spectra
  Absorption max (nm): Nominal
Absorbance spectra; 300-750 nm
  Absorbance counter-screen: Negative

## CC(=O)N[C@H](CCCCNC(=O)CSCCNC(=O)CCNC(=O)C(O)C(C)(C)COP(=O)(O)OP(=O)(O)OC[C@H]1O[C@@H](n2cnc3c(N)ncnc32)[C@H](O)[C@@H]1OP(=O)(O)O)C(N)=O (stereo partly shown) [Compound 23, Lys-CoA]
p300/CBP
  IC50: 0.5 µM
PCAF
  IC50: 200 µM
Human La antigen
  ALARM NMR, (-) DTT: Negative
  ALARM NMR, (+) DTT: Negative
  ALARM NMR interpretation: Inert as tested
Human La antigen; overall readout
  ALARM NMR readout: negative
AmpC β-lactamase
  AmpC aggregation counter-screen: Detergent-insensitive
[4]
  cell permeability: cell-impermeable
